Columns and labels:
Acetyl CoA synthetase = assay: In vivo liver enzyme study: acetyl CoA synthetase; design: species or system mouse; conditions: CF1 liver after 16 days i.p.
Experimental: (§1) In vitro enzymatic studies were determined using 10% homogenates of CF1 male mouse liver with 50-200 μM of test drugs. In vivo enzymatic studies were determined using 10% homogenates of liver from CF1 male mice obtained after administering the agents for 16 days at a dose ranging from 2.5-20 mg/kg/day intraperitoneally. The liver homogenates for both in vitro and in vivo studies were prepared in 0.25M sucrose and 0.001M (ethylenedinitrilo)tetraacetic acid. Acetyl coenzyme A synthetase and adenosine triphosphate dependent citrate lyase activities were determined spectrophotometrically at 540 nm as the hydroxylamate of acetyl coenzyme A formed after 30 min at 37° C. Mitochondrial citrate exchange was determined by the procedure of Robinson et al [Eur. J. Biochem., 216, 63 (1970)] using ^14 C-sodium bicarbonate (41 mCi/mmol) incorporated into mitochondrial ^14 C-citrate after isolating rat mitochondria (9000 g×10 min) from the homogenates. The exchanges of the ^14 C-citrate were determined after incubating the mitochondrial fraction which was loaded with labeled citrate and test drugs for 10 min. Then the radioactivity was measured in the mitochondrial and supernantant fractions in scintillation fluid and expressed as a percentage. Cholesterol side chain oxidation was determined by the method of Kritchevsky and Tepper [Artherosclerosis, 18, 93 (1973)] using (26-^14 C) cholesterol (50 mCi/mmol) and mitochondria isolated from rat liver homogenates. […] Fatty acid synthetase activity was determined by the method of Brady et al [J. Biol. Chem., 235, 3093 (1960)] using [2-^14 C] malonyl-coenzyme A (37.5 mCi/mmol) which was incorporated into newly synthesized fatty acids that were extracted with ether and counted. Acyl transferase activity was determined with glycerol-3phosphate [L-2-^3 H(N)] […] HCl and counted. Phosphatidate phosphohydrolase activity was measured as the inorganic phosphate released after 30 min from phosphatidic acid by the method of Mavis et al [J. Lipid Res., 19, 467 (1978)]. […]

Fatty Acid Synthetase = molecular target: T1, Fatty Acid Synthetase (Mus musculus, UniProt P19096); assay: In vivo liver enzyme study: fatty acid synthetase; conditions: CF1 liver after 16 days i.p.
T1 construct: 10% homogenates of CF1 male mouse liver; from tissue; host or cells: CF1 male mouse liver, 10% homogenate
Experimental: as §1

Organ weights = format: in vivo, rat; conditions: for Organ Weight: 14 days 10 mg/Kg/Day, Treated
From the text: Periodic animal weights were obtained during the experiments and expressed as a percentage of the animal's weight on day 0. After dosing for 14 days with test drugs, selected organs were excised, trimmed of fat and weighed. The organ weights were expressed as a percentage of the total body weight of the animal.

T1 sequence (P19096 whole entry): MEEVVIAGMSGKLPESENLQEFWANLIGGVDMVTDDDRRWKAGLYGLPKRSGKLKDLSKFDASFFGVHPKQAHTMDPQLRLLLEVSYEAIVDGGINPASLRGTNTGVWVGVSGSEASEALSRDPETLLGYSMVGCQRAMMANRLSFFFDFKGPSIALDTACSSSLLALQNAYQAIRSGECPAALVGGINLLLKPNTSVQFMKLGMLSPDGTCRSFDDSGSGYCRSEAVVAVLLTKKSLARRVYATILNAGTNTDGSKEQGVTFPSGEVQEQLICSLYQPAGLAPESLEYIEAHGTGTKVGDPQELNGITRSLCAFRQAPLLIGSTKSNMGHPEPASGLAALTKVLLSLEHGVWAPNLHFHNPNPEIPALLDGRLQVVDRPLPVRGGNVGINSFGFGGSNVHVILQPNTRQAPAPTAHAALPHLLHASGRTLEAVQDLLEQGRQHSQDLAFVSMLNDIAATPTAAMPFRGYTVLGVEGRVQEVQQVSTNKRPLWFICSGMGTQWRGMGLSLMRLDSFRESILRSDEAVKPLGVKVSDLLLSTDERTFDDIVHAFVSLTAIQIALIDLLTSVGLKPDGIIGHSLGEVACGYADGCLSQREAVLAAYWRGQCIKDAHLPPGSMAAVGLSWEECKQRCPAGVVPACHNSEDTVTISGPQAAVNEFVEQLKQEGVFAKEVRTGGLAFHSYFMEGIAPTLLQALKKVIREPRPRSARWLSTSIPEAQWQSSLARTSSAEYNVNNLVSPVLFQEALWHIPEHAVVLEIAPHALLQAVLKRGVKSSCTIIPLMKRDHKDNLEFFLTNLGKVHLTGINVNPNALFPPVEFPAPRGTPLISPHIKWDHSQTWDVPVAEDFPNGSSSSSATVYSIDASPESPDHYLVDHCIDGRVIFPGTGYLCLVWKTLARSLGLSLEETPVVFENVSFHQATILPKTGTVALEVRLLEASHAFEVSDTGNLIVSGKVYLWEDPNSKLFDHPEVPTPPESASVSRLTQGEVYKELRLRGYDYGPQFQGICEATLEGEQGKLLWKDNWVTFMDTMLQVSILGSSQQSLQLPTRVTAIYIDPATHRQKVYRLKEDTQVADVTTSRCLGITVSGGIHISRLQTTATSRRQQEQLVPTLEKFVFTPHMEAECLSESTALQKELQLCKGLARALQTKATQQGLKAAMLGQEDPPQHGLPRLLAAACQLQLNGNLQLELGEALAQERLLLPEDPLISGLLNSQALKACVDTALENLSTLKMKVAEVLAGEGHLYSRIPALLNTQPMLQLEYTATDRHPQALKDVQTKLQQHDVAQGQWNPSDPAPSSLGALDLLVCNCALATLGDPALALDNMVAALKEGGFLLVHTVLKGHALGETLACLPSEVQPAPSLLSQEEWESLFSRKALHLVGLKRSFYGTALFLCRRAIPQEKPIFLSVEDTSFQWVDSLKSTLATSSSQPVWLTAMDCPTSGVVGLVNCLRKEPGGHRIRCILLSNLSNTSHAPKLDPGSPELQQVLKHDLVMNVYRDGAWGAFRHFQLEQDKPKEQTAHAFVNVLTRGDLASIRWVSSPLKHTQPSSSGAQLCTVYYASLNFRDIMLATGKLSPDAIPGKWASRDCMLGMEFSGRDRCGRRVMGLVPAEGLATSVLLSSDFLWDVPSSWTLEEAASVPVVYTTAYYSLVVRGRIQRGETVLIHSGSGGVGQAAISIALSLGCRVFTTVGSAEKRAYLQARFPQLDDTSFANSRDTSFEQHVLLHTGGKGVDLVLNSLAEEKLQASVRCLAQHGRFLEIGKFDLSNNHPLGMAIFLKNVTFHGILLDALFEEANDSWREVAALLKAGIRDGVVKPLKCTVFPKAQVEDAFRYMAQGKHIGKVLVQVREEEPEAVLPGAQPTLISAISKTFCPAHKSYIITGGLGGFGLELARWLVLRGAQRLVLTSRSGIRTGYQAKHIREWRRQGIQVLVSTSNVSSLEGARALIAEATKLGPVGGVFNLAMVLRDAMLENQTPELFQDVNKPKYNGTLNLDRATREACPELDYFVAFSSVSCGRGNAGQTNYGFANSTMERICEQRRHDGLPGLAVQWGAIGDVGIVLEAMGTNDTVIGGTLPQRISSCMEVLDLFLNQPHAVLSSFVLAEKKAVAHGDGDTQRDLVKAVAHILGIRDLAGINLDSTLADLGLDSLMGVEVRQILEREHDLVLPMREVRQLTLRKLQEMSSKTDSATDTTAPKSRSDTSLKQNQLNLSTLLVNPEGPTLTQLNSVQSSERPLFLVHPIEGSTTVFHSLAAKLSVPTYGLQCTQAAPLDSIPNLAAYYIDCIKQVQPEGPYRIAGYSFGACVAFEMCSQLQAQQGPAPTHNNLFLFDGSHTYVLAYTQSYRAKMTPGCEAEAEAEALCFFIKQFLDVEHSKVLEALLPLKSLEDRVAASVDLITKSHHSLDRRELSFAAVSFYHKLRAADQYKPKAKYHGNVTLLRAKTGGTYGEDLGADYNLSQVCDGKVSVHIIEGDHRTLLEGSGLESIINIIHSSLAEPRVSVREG

## {Cu[(CH3)3 N.BH2 CO2 ]2.(CH3)3 N.BH2 COOH} [Compound I]
Acetyl CoA synthetase; 2.5 mg/kg
  Acetyl CoA synthetase: 62 ± 6% of control
Acetyl CoA synthetase; 5.0 mg/kg
  Acetyl CoA synthetase: 77 ± 7% of control
Acetyl CoA synthetase; 10 mg/kg
  Acetyl CoA synthetase: 73 ± 7% of control
Fatty Acid Synthetase; 2.5 mg/kg
  Fatty Acid Synthetase: 102 ± 7% of control
Fatty Acid Synthetase; 5.0 mg/kg
  Fatty Acid Synthetase: 90 ± 6% of control
Fatty Acid Synthetase; 10 mg/kg
  Fatty Acid Synthetase: 94 ± 5% of control
Organ weights; after drug administration
  Adrenal weights: not altered
Organ weights; rat Adrenal
  Organ Weight: 0.031 gm
Organ weights; rat Brain
  Organ Weight: 1.666 gm
Organ weights; rat Chyme
  Organ Weight: 5.9333 gm
Organ weights; rat Feces
  Organ Weight: 8.633 gm
Organ weights; rat Heart
  Organ Weight: 1.021 gm
Organ weights; rat Kidney
  Organ Weight: 2.167 gm
Organ weights; rat Large Intestine
  Organ Weight: 4.233 gm
Organ weights; rat Liver
  Organ Weight: 10.600 gm
Organ weights; rat Lung
  Organ Weight: 1.933 gm
Organ weights; rat Small Intestine
  Organ Weight: 6.433 gm
Organ weights; rat Spleen
  Organ Weight: 0.501 gm
Organ weights; rat Stomach
  Organ Weight: 1.766 gm
